This is an account of results in patent publication US11931380B2, “Inhibition of diacylglycerol kinase to augment adoptive T cell transfer” (THE TRUSTEES OF THE UNIVERSITY OF PENNSYLVANIA, priority 2012, dated 2024).

Data set [1] relates to DGK. As to the kind of experiment: DGK inhibitor effect on killing activity of human CAR-TIL. Format: cell-based. To be noted: preliminary observations. As for the experimental part: In addition, experiments were conducted to mimic potential human trials in which mice with established tumors were injected intravenously with 10^7 wild type T cells or the three types of DGK knockout T cells. […] Preliminary relevant observations in human CAR T cells have been recorded using a commercially available DGK inhibitor (R59022). Human mesothelin-CAR T cells mixed with human mesothelin tumor cells (at a 1:1 ratio) were injected into immunodeficient mice. The tumor growth was slowed, but not prevented by the CAR-T cells. After 2-3 weeks, tumors were harvested and the human CAR-T cells were purified. When these T cells (Tumor infiltrating lymphocytes, or TILs) are allowed to react with fresh tumors, they can kill only 5-10% of the tumor cells showing they are hypofunctional compared to freshly made CAR-T cells which kill 70% of tumor cells (FIG. 15).

Data set [2] relates to DGK. As to the kind of experiment: Lysis of EM-meso-luc cells by antigen-exposed human mesoCAR T cells with or without DGK inhibitors. Format: cell-based. To be noted: 5 μg/mL inhibitor, 18 hours, after 96 hours exposure to EM-meso. The method, then: Primary human T cells were obtained and mock infected or transduced with lentivirus expressing mesoCAR as previously described (Moon et al., 2011, Clin Cancer Res 17:4719-30). A total of 5×10^6 T cells were subsequently added to 24-well plates that had been seeded with 5×10^5 cells either from the epithelial mesothelioma (EM) human mesothelioma line or a stable derivative cell line, EM-meso, engineered to express high levels of mesothelin, in a 24-well dish. […] Cells were assessed for viability using Trypan blue, and 1×10^5 live T cells were cocultured with 5×10^3 EM-meso-luc cells expressing luciferase in 96-well plates in the presence or absence of the DGK inhibitors DGK1 (R59022) or DGK2 (R59949; Sigma) at 5 μg/mL. After 18 hours, remaining tumor cells were washed and lysed, and luminescence was evaluated. Cell lysate determinations were corroborated with visual estimate of remaining numbers of tumor cells.

Data set [3] has as its system DGK. To be noted: freshly isolated human TIL, renal cell cancers; cited from earlier work.

Structures are written as SMILES.

On to `Cc1nc2sccn2c(=O)c1CCN1CCC(=C(c2ccccc2)c2ccc(F)cc2)CC1` [R59022], for which the “function (killing activity) of human CAR-TIL” value in data set [1] is reported as “augments function”. For the same molecule, the “cytotoxicity of mesothelin-exposed mesoCAR T cells” value in data set [2] was “reverse the impaired cytotoxicity”. For the same molecule, the TIL function entry in data set [3] is given as “improve TIL function”.

As to `O=c1c2ccccc2[nH]c(=S)n1CCN1CCC(=C(c2ccc(F)cc2)c2ccc(F)cc2)CC1` [R59949], the “cytotoxicity of mesothelin-exposed mesoCAR T cells” value in data set [2] is listed as “reverse the impaired cytotoxicity”.
